{
  "source": "patent US20250381121A1",
  "about": "“COMPOSITION FOR PERSONAL CARE PRODUCTS” (VAGINAL BIOME SCIENCE, INC., priority 2024, published 2025)",
  "key": {"[1]": {"tested_on": "herpes simplex virus (HSV-2)", "conditions": "cited from earlier work"}, "Lactobacillus crispatus": {"tested_on": "Lactobacillus crispatus", "experiment": "Growth of Lactobacillus crispatus with UV-irradiated acemannan over 24 hours", "assay_type": "cell-based", "description": "Growth media contained Dextrose-Free Sharpe (MRS) broth and Lactobacilli MRS Agar or an equivalent. Extract of irradiated aloe vera was further added to the MRS broth at 0.1 and 0.3% (w/v). A predetermined number of bacteria was added to each of the prepared medium and cultured at 37° C. under a suitable condition for the organism to be tested (anaerobic conditions for L. crispatus and L. gasseri). A small portion of the culture was removed at 2, 4, 6, 8, 12, 14, 16, 18, and 24 hours of culture. At each time point, collected samples containing the growing organisms are plated to quantify the live cell number.\nThe cell growth of Lactobacillus crispatus and Lactobacillus gasseri was determined by serial dilutions and plating to determine the bacterial counts at designated time points during the 24-h study period. Plates were cultured at 37° C. under a suitable condition for the organism to be tested (anaerobic conditions for L. crispatus and L. gasseri). Bacterial colonies were quantified at 0 and 16 hours after incubation.\nThe experiments were carried out using the method described above for EXAMPLE 4. Lactobacillus crispatus was cultured in the presence of varying concentrations (0.1%, 0.2%, 0.3%, 0.5%) of UV-irradiated acemannan or a negative control over a 24-hour period. Bacterial growth was quantified at 10 time points (0-24 hours) using log-scaled CFU/mL equivalents."}},
  "note": "Read-outs that look alike come from different tables or passages of the source.",
  "data": [
    {"compound": "CCCCCCCCCCCC(=O)OCC(O)CO", "note": "(stereo not drawn) [glycerol monolaurate (GML), glycerol monolaurate]", "values": [
      {"measurement": "susceptibility to herpes simplex virus (HSV-2)", "setting": "[1]; 5% as a colloidal suspension in phosphate buffered saline, single exposure", "value": "markedly increased"},
      {"measurement": "susceptibility to herpes simplex virus (HSV-2)", "setting": "[1]; 5% formulated in K-Y Warming Jelly, single exposure", "value": "markedly increased"}
    ]},
    {"compound": "CC(O)CO", "note": "(stereo not drawn) [propylene glycol]", "values": [
      {"measurement": "susceptibility to herpes simplex virus (HSV-2)", "setting": "[1]; in vivo", "value": "markedly increased"}
    ]},
    {"compound": "acemannan", "values": [
      {"measurement": "enhancement of L. crispatus growth compared with negative control", "setting": "Lactobacillus crispatus; 0.3% acemannan, at 10 hours (p<0.05)", "value": "significant enhancement of growth"},
      {"measurement": "stimulation of L. crispatus growth over negative control", "setting": "Lactobacillus crispatus; 0.5% acemannan, significant at 6, 8, 10 and 18 hours (p<0.05)", "value": "most robust and consistent stimulation"}
    ]},
    {"compound": "polyethylene glycol [polyethylene glycol (PEG-8)]", "values": [
      {"measurement": "susceptibility to herpes simplex virus (HSV-2)", "setting": "[1]; in vivo", "value": "markedly increased"}
    ]}
  ]
}
